Reference: article PMC12735969, “Regulation of NAD^+ Homeostasis by SsNrtR in Streptococcus Sobrinus: A Critical Determinant of Its Cariogenic Potential” (Pathogens, 2025)

Target: T1, SsNrtR (Streptococcus sobrinus, UniProt A0ABM6W328)
T1 construct: gene DK182_01300; full-length, hexahistidine tag, pET28b-nrtR, E. coli BL21(DE3), Ni-NTA and Superdex 200; about 28 kDa; dimer and oligomers
Assay: EMSA, release from pnuC/pncB promoter DNA
Type: binding
Details: ADPR 0-1.0 mM; 200 bp pnuC/pncB promoter probe; allosteric anti-repressor

With `Nc1ncnc2c1ncn2[C@@H]1O[C@H](COP(=O)(O)OP(=O)(O)OC[C@H]2OC(O)[C@H](O)[C@@H]2O)[C@@H](O)[C@H]1O` (stereo partly shown) [ADP-ribose] the “EMSA, release from pnuC/pncB promoter DNA” value was “the interaction between SsNrtR and the pnuC/pncB DNA probe was disrupted by ADPR”.
